Here are results for 2 compounds from patent US20250034134A1, “15-PGDH INHIBITOR AND USE THEREOF” (Wuhan Humanwell Innovative Drug Research and Development …, priority 2021, published 2025).

For one data set, the target named is 15-PGDH (Homo sapiens (Human), UniProt P15428). Put plainly: Inhibition test of compounds on 15-PGDH enzyme. It is filed as biochemical. As to the method: 15-PGDH (R&D Systems, Cat. No.: 5660-DH-010) was prepared to twice the final concentration, i.e., 30 nM, using Assay Buffer (50 mM Tris-HCl, pH 7.5, 0.01vol % Tween 20). The obtained mixture was then added to a 384-well white plate (Cisbio Bioassays, Cat. No. 66PL384025) at 8 μL/well. Negative control wells (with Assay Buffer only and without enzyme) were set. The compound was then prepared to 4 times the final concentration using Assay Buffer, i.e., diluted 3-fold to 10 concentrations starting from 4000 nM. The obtained mixture was added to the above white plate at 4 μL/well, mixed well, centrifuged at 1000 rpm for 1 minute, and incubated at 25° C. for 10 minutes. Both positive control wells (with 15-PGDH only) and negative control wells (without 15-PGDH) were set. A mixture of NAD^+(Select, Cat. No. S2518) and PGE2 (R&D Systems, Cat. No.: 2296/10) was then prepared using Assay Buffer. NAD^+ and PGE2 were prepared to four times their final concentrations, i.e., 2 mM and 0.12 mM, respectively, using Assay Buffer. The obtained mixture was then added to the above white plate at 4 μL/well, mixed well, centrifuged at 1000 rpm for 1 minute, and incubated at 25° C. for 30 minutes for the reaction. The fluorescence was detected at an excitation wavelength of 340 nm and an emission wavelength of 485 nm using instrument TECAN SPARK 20M. The IC50 value was calculated using four-parameter fitting with GraphPad Prism 8.0.
Chain of 15-PGDH (P15428 whole entry): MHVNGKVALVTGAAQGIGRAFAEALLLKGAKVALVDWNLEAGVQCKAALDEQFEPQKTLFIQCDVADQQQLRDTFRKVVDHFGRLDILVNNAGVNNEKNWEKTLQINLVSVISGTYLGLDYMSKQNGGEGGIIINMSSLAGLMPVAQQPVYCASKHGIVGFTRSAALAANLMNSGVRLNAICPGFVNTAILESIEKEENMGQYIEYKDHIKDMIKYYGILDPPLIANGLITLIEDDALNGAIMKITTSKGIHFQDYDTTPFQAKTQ

In the next data set the test system is A549 cells. The data set is described as follows: Effect of compounds on PGE2 levels in A549 cell supernatant. It is filed as cell-based. The conditions noted are these: 20 nM compound, about 12 hours, after IL-10 stimulation; ELISA. As for the experimental part: A549 cells (Procell, Wuhan) were cultured in F12K+10% FBS. The cells with good status in log phase were selected for the experiment, digested, counted, and inoculated into a 24-well plate at 8000 cells per well. The cells were cultured in a 37° C., 5% CO2 incubator overnight. After adherence, the cells were transferred to a culture medium containing 0.5% FBS and cultured for about 10 hours. IL-10 was added to each well (final concentration of 20 ng/mL, 1 mL per well), and a control group (without IL-10) was set up. After stimulation with IL-10 for about 24 hours, the cell culture medium of each well was aspirated and discarded, and the wells were gently washed with fresh culture medium containing 0.5% FBS. 400 μL of culture medium containing the compound of different concentrations (20 nM and 2500 nM) was added to each well and cultured for about 12 hours. The supernatant was collected and PGE2 was detected using ELISA kit (R&D Systems, Cat. No.: KGE004B).
(An ELISA detects its analyte on a solid surface through an enzyme-linked reagent.)

A further data set is described as follows: Pharmacokinetics in mice. The conditions noted are these: mouse, po; male CD-1 mice, 10 mg/kg, gavage, plasma. Type of data set: in vivo. As for the experimental part:
The pharmacokinetic properties of the compounds of the present disclosure in mice were determined with reference to the following experimental methods.
Three male CD-1 mice were used, administered at a dose of 10 mg/kg, the route of administration was by gavage, and the vehicle was 5% DMSO+10% Solutol+85% Saline. The mice were fasted overnight, and the time points of blood collection were before administration and at 15 minutes, 30 minutes, 1 hour, 2 hours, 4 hours, 8 hours, and 24 hours after administration. Blood samples were centrifuged at 6800 g for 6 minutes at 2 to 8° C., and plasma was collected and stored at −80° C. 10 μL of plasma at each time point was taken, and added with 200 μL of methanol containing 100 ng/mL internal standard. The mixture was vortexed, mixed evenly, and then centrifuged at 18000 g for 7 minutes at 2 to 8° C. 200 μL of the mixture was transferred to a 96-well injection plate for LC-MS/MS quantitative analysis. The main pharmacokinetic parameters were analyzed using WinNonlin 7.0 software with non-compartmental model.

What is called IC50 is the concentration that gives 50% inhibition. A high value points to lower potency. Broadly, the AUC(0-t) is the area under the concentration-time curve up to a stated or last time point. Lower therefore signals less exposure. Usually Cmax stands for the peak of the concentration-time curve. `Cn1ccc2cc(N3CC4CC4c4cc(C(=O)N5CCC(F)(F)CC5)cnc43)ccc2c1=O` (centres unmarked) [Compound I-12, 6-(6-(4,4-difluoropiperidine-1-carbonyl)-1,1a,2,7b-tetrahydro-3H-cyclopropa[c][1,8]naphthyridin-3-yl)-2-methylisoquinolin-1(2H)-one]: at 15-PGDH, the IC50 worked out at 2.1 nM. The “Fold increase of PGE2 in A549 cell supernatant” value in the data set with A549 cells is 5.44. Further, in “Pharmacokinetics in mice”, the AUC(0-t) came out at 107000 ng·h/mL and the Cmax was found to be 14800 ng/mL.

In the case of `Cn1nc2cc(N3CC4CC4c4cc(C(=O)N5CCC6(CC5)CC6)cnc43)ccn2c1=O` (centres unmarked) [Compound I-28, 7-(6-(6-azaspiro[2.5]octane-6-carbonyl)-1,1a,2,7b-tetrahydro-3H-cyclopropa[c][1,8]naphthyridin-3-yl)-2-methyl-[1,2,4]triazolo[4,3-a]pyridin-3(2H)-one], the IC50 against 15-PGDH stood at 1.71 nM. Also, in the data set on A549 cells, the “Fold increase of PGE2 in A549 cell supernatant” value stood at 4.05. Moreover, in the data set “Pharmacokinetics in mice”, the AUC(0-t) was 10700 ng·h/mL and the Cmax was 5040 ng/mL.
